Assays:
Experiment in all cases: area under the viability dose-response curve (AUC) (AUC (arbitrary units, max 500 = no viability loss)); higher = less sensitive (higher viability)
Settings in all cases: exposure time: 120 h; concentration range: 0.1 nM - 10 µM, 6 doses
8F1 = system: 8F1 (fetal-I hepatoblastoma organoid with intermediate liver markers)
Procedure: (§1)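 Patient-derived hepatoblastoma tumor organoids (about 50 organoids per well, 384-well plates, medium with 5% BME) were treated with the PMC pediatric cancer drug library. Each drug was tested in duplicate at 6 concentrations (0.1 nM to 10 µM, 10-fold steps).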

96F1 = system: 96F1 (fetal-I hepatoblastoma organoid with intermediate liver markers)
Procedure: as §1

27F1 = system: 27F1 (fetal-I hepatoblastoma organoid with intermediate liver markers)
Procedure: as §1

17F1 = system: 17F1 (fetal-I hepatoblastoma organoid with intermediate liver markers)
Procedure: as §1

3E = system: 3E (embryonal-type hepatoblastoma organoid)
Procedure: as §1

13E = system: 13E (embryonal-type hepatoblastoma organoid)
Procedure: as §1

135F2 = system: 135F2 (fetal-II hepatoblastoma organoid with high liver markers)
Procedure: as §1

13F2 = system: 13F2 (fetal-II hepatoblastoma organoid with high liver markers)
Procedure: as §1

17E = system: 17E (embryonal-type hepatoblastoma organoid)
Procedure: as §1

10F2 = system: 10F2 (fetal-II hepatoblastoma organoid with high liver markers)
Procedure: as §1

22E = system: 22E (embryonal-type hepatoblastoma organoid)
Procedure: as §1

Row | SMILES | area under the viability dose-response curve (8F1) | area under the viability dose-response curve (96F1) | area under the viability dose-response curve (27F1) | area under the viability dose-response curve (17F1) | area under the viability dose-response curve (3E) | area under the viability dose-response curve (13E) | area under the viability dose-response curve (135F2) | area under the viability dose-response curve (13F2) | area under the viability dose-response curve (17E) | area under the viability dose-response curve (10F2) | area under the viability dose-response curve (22E)
1 | FC(F)(F)c1ccc(/C=C/c2nc(COc3ccc(CCCCn4ccnn4)cc3)co2)cc1 [Mubritinib] | 263 | 269 | 335 | 245 | 429 | 339 | 334 | 264 | 419 | 438 | 449
2 | CCc1c2c(nc3ccc(O)cc13)-c1cc3c(c(=O)n1C2)COC(=O)[C@]3(O)CC [SN-38 (Irinotecan)] | 251 | 173 | 178 | 189 | 156 | 266 | 156 | 162 | 200 | 173 | 312
3 | O=C1c2c(O)ccc(O)c2C(=O)c2c(NCCNCCO)ccc(NCCNCCO)c21 [Mitoxantrone] | 405 | 313 |  | 319 | 208 | 274 | 285 | 222 | 257 | 294 | 340
4 | CCNC(=O)C[C@@H]1N=C(c2ccc(Cl)cc2)c2cc(OC)ccc2-n2c(C)nnc21 [Molibresib] | 465 | 497 | 498 | 477 | 378 | 468 | 417 | 389 | 400 | 386 | 442
5 | CC1(COc2ccc3c(c2)ncn3-c2ccc3cccc(N4CCC(N)CC4)c3n2)COC1 [Crenolanib] | > 500 | 467 | > 500 | 479 | 466 | > 500 | 448 | 446 | 487 | 480 | > 500
6 | CN(C)/N=N/c1[nH]cnc1C(N)=O [Dacarbazine] | > 500 | 491 | 494 | 486 | > 500 | > 500 | 496 | 487 | > 500 | > 500 | > 500
7 | CC(C)C[C@H](NC(=O)CNC(=O)c1cc(Cl)ccc1Cl)B(O)O [Ixazomib] | 287 | 294 | 282 | 278 | 256 | 282 | 261 | 264 | 247 | 246 | 321
8 | COc1cccc2c1C(=O)c1c(O)c3c(c(O)c1C2=O)C[C@@](O)(C(=O)CO)C[C@@H]3O[C@H]1C[C@H](N)[C@H](O)[C@H](C)O1 [Doxorubicin] | 384 | 311 | 333 | 311 | 263 | 305 | 308 | 258 | 278 | 281 | 336
9 | CC(C)(O)CNc1nc(Nc2ccnc(C(F)(F)F)c2)nc(-c2cccc(C(F)(F)F)n2)n1 [Enasidenib] | > 500 | > 500 | > 500 | > 500 | > 500 | > 500 | > 500 | > 500 | > 500 | > 500 | > 500
10 | COc1cccc(OCCCN)c1-c1cc(Nc2cnc(C#N)cn2)n[nH]1 [Prexasertib] | 334 | 320 | 264 | 371 | 172 | 313 | 324 | 345 | 274 | 293 | 345
11 | CC[C@]1(O)C[C@H]2CN(CCc3c([nH]c4ccccc34)[C@@](C(=O)OC)(c3cc4c(cc3OC)N(C=O)[C@H]3[C@@](O)(C(=O)OC)[C@H](OC(C)=O)[C@]5(CC)C=CCN6CC[C@]43[C@@H]65)C2)C1 [Vincristine] | 243 | 196 | 218 | 180 | 125 | 174 | 209 | 222 | 181 | 188 | 193
12 | C[C@]12C=CC(=O)C=C1CC[C@@H]1[C@@H]2[C@@H](O)C[C@@]2(C)[C@H]1CC[C@]2(O)C(=O)CO [Prednisolone] | 472 | 479 | 489 | 493 | 472 | 494 | 475 | > 500 | 467 | 475 | 487
13 | COCC[n+]1c2c(n(Cc3cnccn3)c1C)C(=O)c1ccccc1C2=O [Sepantronium bromide] | 429 | 286 | 408 | 312 | 241 | 337 | 427 | 395 | 331 | 348 | 316

Source: the supplement of paper PMC11579375
